From patent US20080069899A1, “Pharmaceutical Compositions Comprising Beta-Carboline Derivatives and Use Thereof for the Treatment of Cancer” (priority 2004, published 2008)
Where “and” joins values, the source holds several entries; their conditions need not be identical. Identical values can stand only once. Like-named read-outs stand apart in the source and are kept apart here.

Assays:
[1] = test system: HBMEC (immortalized human bone marrow endothelial cell lines); test: in vitro cytotoxicity test (neutral red, 96-well microplate); assay type: cell-based; settings: 96 h, incubation 4 days
Protocol: (§1) The cytotoxic effects of the different alkaloid extracts of P. harmala were studied on several cell lines: • human leukemia cell lines: K562 and Jurkat (leukemia), U937 (myeloma), • human solid tumor cell lines: KB (epithelioma of the nasopharynx) and HT29 (colon), • immortalized human bone marrow endothelial cell lines: HBMEC.
(§2) The cells are cultured in an oven under a 5% CO2 atmosphere and at 37° C., in RPMI 1640 medium for K562, Jurkat, U937 and HT29 and DMEM for KB, supplemented with 10% foetal calf serum, 0.01% penicillin-streptomycin and L-glutamine 2 mM and in EGM2 medium for the HBMEC cells.
(§3) The cytotoxicity test is carried out in a 96-well microplate in the presence of the extract to be tested at varying concentrations of 40, 20, 10, 5, 1, 0.5 μg/ml and in the absence of product, after incubation for 4 days at 37° C. On the 3rd day, a solution of neutral red is added which is absorbed by living cells. The optical density (OD) of dye released by lyzed cells is measured at 540 nm by an Elisa plate reader. The toxicity (% inhibition of growth) is inversely proportional to the optical density.
(§4) The percentage of inhibition is defined as being the difference between the OD without product and the OD in the presence of product compared to the OD without product.
(§5) The concentration inhibiting 50% of cell growth is obtained from the curve representing the percentage of inhibition as a function of the logarithm of the concentration.

[2] = test system: HT29 (colon); test: as above; assay type: cell-based; settings: Homo sapiens, HT-29, 96 h, incubation 4 days
Protocol: as §1, §2, §3, §4, §5

[3] = test system: Jurkat (leukemia); test: as above; assay type: cell-based; settings: Homo sapiens, 96 h, incubation 4 days
Protocol: as §1, §2, §3, §4, §5

[4] = test system: KB (epithelioma of the nasopharynx); test: as above; assay type: cell-based; settings: Homo sapiens, 96 h, incubation 4 days
Protocol: as §1, §2, §3, §4, §5

[5] = test system: U937 (myeloma); test: as above; assay type: cell-based; settings: Homo sapiens, U-937, 96 h, incubation 4 days
Protocol: as §1, §2, §3, §4, §5

[6] = test system: malignant and endothelial cells tested; test: summary of in vitro cytotoxicity over all lines tested; assay type: cell-based, human; settings: Homo sapiens, Endothelial cell, range over the cell lines; read-out: IC50 vis-à-vis malignant and endothelial cells tested
Protocol: as §1, §2, §3, §4, §5
To summarize, the IC50 vis-à-vis malignant and endothelial cells tested is the following: […]

[7] = test system: HT29 human colon tumor cells; test: in vivo antineoplastic activity, NOD-SCID mice xenografted with HT29 human tumour cells
Protocol: (§6) The animal model chosen is that of severe combined immunodeficient (NOD-SCID) mice having received a xenograft of human tumor cells.
(§7) Male and female NOD-SCID mice, more than 3 months old, were raised in an environment of strict sterility, in an insulator ventilated with filtered air and sterilized, at 22° C. and 40% humidity, with a day-12 h/night-12 h cycle. The cages, feeding bottles and the water were sterilized in an autoclave at 120° C. for 30 minutes and the food as well as the bedding were treated with γ-irradiation. All handling took place in aseptic conditions under a laminar flow hood.
The mice were subjected to general anaesthesia by i.p. injection of 0.3 to 0.4 ml of hypnomidate at 2 mg/ml. 1×10^7 HT29 human colon tumor cells in suspension in 200 μl of PBS were then injected sub-cutaneously, into the backs of the mice. […]
50 mg of 5-fluorouracil (Sigma) were dissolved in 8 ml of water and the solution obtained was sterilized by filtration on a membrane with 0.22 μm porosity. […]

[8] = Protocol: as §6, §7
150 mg of cyclophosphamide (Sigma) were dissolved in 8 ml of water and the solution obtained was sterilized by filtration on a membrane with 0.22 μm porosity.
50 mg of 5-fluorouracil (Sigma) were dissolved in 8 ml of water and the solution obtained was sterilized by filtration on a membrane with 0.22 μm porosity.
100 mg of dihydrated harmalacidine hydrochloride were dissolved in 8 ml of water and the solution obtained was sterilized by filtration on a membrane with 0.22 μm porosity. The mice received either 25, 50, or 100 mg/kg/day of harmalacidine alone, or a mixture of 25 or 50 mg/kg/day of harmalacidine+50 mg/kg/day of cyclophosphamide.

[9] = test system: HT29 human colon tumor cells; test: in vivo antineoplastic activity, NOD-SCID mice xenografted with HT29 human tumour cells; remark: listed apart in the source
[10] = test system: murine tumorous cells; settings: cited from earlier work
[11] = test system: K562 (leukemia); test: in vitro cytotoxicity test (neutral red, 96-well microplate); assay type: cell-based; settings: Homo sapiens, 96 h, incubation 4 days
Protocol: as §1, §2, §3, §4, §5

## COc1ccc2c(c1)[nH]c1c(C)nccc12 [Harmine (A), harmine]
[1]
  IC50: 3.5 µg/mL and 16.5 µM
[2]
  IC50: 2.9 µg/mL and 13.7 µM
[3]
  IC50: 3.2 µg/mL and 15.1 µM
[4]
  IC50: 4.6 µg/mL and 21.7 µM
[5]
  IC50: 16.5 µM
[6]
  IC50: 2.9 µg/mL to 4.6 µg/mL and 14 µM to 22 µM
[7]; harmine 100 mg/kg/day per os
  inhibitory action on the growth of the tumors: very weak effect
[7]; harmine 100 mg/kg/day per os, Day 30
  Average volume of the tumours of the treated mice compared to the average volume of the tumours of the non-treated mice (T/C) (%): 74%
[7]; harmine 100 mg/kg/day per os, Day 50
  Average volume of the tumours of the treated mice compared to the average volume of the tumours of the non-treated mice (T/C) (%): 84%
[7]; harmine 100 mg/kg/day per os, Day 60
  Average volume of the tumours of the treated mice compared to the average volume of the tumours of the non-treated mice (T/C) (%): 105%
[7]; harmine 125 mg/kg/day per os, Day 40
  Average volume of the tumours of the treated mice compared to the average volume of the tumours of the non-treated mice (T/C) (%): 58%
[7]; harmine 125 mg/kg/day per os, Day 50
  Average volume of the tumours of the treated mice compared to the average volume of the tumours of the non-treated mice (T/C) (%): 54%
[7]; harmine 125 mg/kg/day per os, Day 60
  Average volume of the tumours of the treated mice compared to the average volume of the tumours of the non-treated mice (T/C) (%): 67%
[7]; harmine 150 mg/kg/day per os, Day 30
  Average volume of the tumours of the treated mice compared to the average volume of the tumours of the non-treated mice (T/C) (%): 41%
[7]; harmine 150 mg/kg/day per os, Day 40
  Average volume of the tumours of the treated mice compared to the average volume of the tumours of the non-treated mice (T/C) (%): 46%
[7]; harmine 150 mg/kg/day per os, Day 50
  Average volume of the tumours of the treated mice compared to the average volume of the tumours of the non-treated mice (T/C) (%): 42%
[7]; harmine 150 mg/kg/day per os, Day 60
  Average volume of the tumours of the treated mice compared to the average volume of the tumours of the non-treated mice (T/C) (%): 51%
[7]; harmine 175 mg/kg/day per os, Day 30
  Average volume of the tumours of the treated mice compared to the average volume of the tumours of the non-treated mice (T/C) (%): 40%
[7]; harmine 175 mg/kg/day per os, Day 60
  Average volume of the tumours of the treated mice compared to the average volume of the tumours of the non-treated mice (T/C) (%): 40%
[7]; harmine 175 mg/kg/day per os, for the entire duration of treatment
  T/C: 40%
[8]; harmine 200 mg/kg/day per os, the mice died after a few days of treatment
  tolerance of the dose: not tolerated
[9]; harmine 100 mg/kg/day per os, Day 40
  Average volume of the tumours of the treated mice compared to the average volume of the tumours of the non-treated mice (T/C) (%): 77%
[9]; harmine 125 mg/kg/day per os, Day 30
  Average volume of the tumours of the treated mice compared to the average volume of the tumours of the non-treated mice (T/C) (%): 55%
[9]; harmine 175 mg/kg/day per os, Day 40
  Average volume of the tumours of the treated mice compared to the average volume of the tumours of the non-treated mice (T/C) (%): 10%
[9]; harmine 175 mg/kg/day per os, Day 50
  Average volume of the tumours of the treated mice compared to the average volume of the tumours of the non-treated mice (T/C) (%): 30%

## Peganine [Peganine (B)]
[10]
  concentration inhibiting 50% of cell growth (IC50): inactive

## COc1ccc2c3c([nH]c2c1)C(=O)NCC3 [Harmalacidine (C), harmalacidine]
[1]
  IC50: 28 µg/mL and 130 µM
[2]
  IC50: 10.5 µg/mL and 34.4 µM
[3]
  IC50: 15.5 µg/mL and 71.7 µM
[11]
  IC50: 12.5 µg/mL and 57.8 µM
[4]
  IC50: 12 µg/mL and 55.5 µM
[5]
  IC50: 29 µg/mL and 134 µM
[7]; harmalacidine 25 mg/kg/day alone per os, Day 15
  Average volume of the tumours of the treated mice compared to the average volume of the tumours of the non-treated mice (T/C) (%): 81%
[7]; harmalacidine 25 mg/kg/day alone per os, Day 30
  Average volume of the tumours of the treated mice compared to the average volume of the tumours of the non-treated mice (T/C) (%): 72%
[7]; harmalacidine 25 mg/kg/day alone per os, Day 40
  Average volume of the tumours of the treated mice compared to the average volume of the tumours of the non-treated mice (T/C) (%): 70%
[7]; harmalacidine 25 mg/kg/day alone per os, Day 50
  Average volume of the tumours of the treated mice compared to the average volume of the tumours of the non-treated mice (T/C) (%): 65%
[7]; harmalacidine 25 mg/kg/day alone per os, Day 60
  Average volume of the tumours of the treated mice compared to the average volume of the tumours of the non-treated mice (T/C) (%): 77%
[7]; harmalacidine 50 mg/kg/day alone per os, Day 15
  Average volume of the tumours of the treated mice compared to the average volume of the tumours of the non-treated mice (T/C) (%): 42%
[7]; harmalacidine 50 mg/kg/day alone per os, Day 30
  Average volume of the tumours of the treated mice compared to the average volume of the tumours of the non-treated mice (T/C) (%): 56%
[7]; harmalacidine 50 mg/kg/day alone per os, Day 40
  Average volume of the tumours of the treated mice compared to the average volume of the tumours of the non-treated mice (T/C) (%): 48%
[7]; harmalacidine 50 mg/kg/day alone per os, Day 50
  Average volume of the tumours of the treated mice compared to the average volume of the tumours of the non-treated mice (T/C) (%): 45%
[7]; harmalacidine 50 mg/kg/day alone per os, Day 60
  Average volume of the tumours of the treated mice compared to the average volume of the tumours of the non-treated mice (T/C) (%): 57%
[8]; harmalacidine 100 mg/kg/day alone, Day 15
  state of the mice (printed in the T/C column): dead
[8]; harmalacidine 100 mg/kg/day, for more than 10 days
  tolerance of the dose: not tolerated
